Results from PubChem BioAssay (NCI).
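Five concentrations, 48 hours, 96-well plates. GI50: concentration for 50% inhibition of growth. At the TGI there is no net growth.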

Legend:
Test in all cases: growth of human tumour cells (NCI), 48 h
HS 578T breast = system: HS 578T breast
SNB-75 CNS = system: SNB-75 CNS
HOP-62 NSCLC = system: HOP-62 NSCLC
OVCAR-8 ovarian = system: OVCAR-8 ovarian
UO-31 renal = system: UO-31 renal
HOP-92 NSCLC = system: HOP-92 NSCLC
SF-268 CNS = system: SF-268 CNS
NCI/ADR-RES ovarian = system: NCI/ADR-RES ovarian
MCF7 breast = system: MCF7 breast
SK-MEL-28 melanoma = system: SK-MEL-28 melanoma
SK-MEL-5 melanoma = system: SK-MEL-5 melanoma
HL-60(TB) leukemia = system: HL-60(TB) leukemia
CAKI-1 renal = system: CAKI-1 renal
MDA-MB-231 breast = system: MDA-MB-231 breast
HCC-2998 colon = system: HCC-2998 colon
HCT-116 colon = system: HCT-116 colon
M14 melanoma = system: M14 melanoma
A498 renal = system: A498 renal
SW-620 colon = system: SW-620 colon
OVCAR-5 ovarian = system: OVCAR-5 ovarian
T-47D breast = system: T-47D breast
SF-295 CNS = system: SF-295 CNS
NCI-H460 lung = system: NCI-H460 lung
HT29 colon = system: HT29 colon
MOLT-4 leukemia = system: MOLT-4 leukemia
COLO 205 colon = system: COLO 205 colon
DU-145 prostate = system: DU-145 prostate
U251 CNS = system: U251 CNS
NCI-H226 lung = system: NCI-H226 lung
EKVX NSCLC = system: EKVX NSCLC
A549 NSCLC = system: A549 NSCLC
NCI-H522 lung = system: NCI-H522 lung
SF-539 CNS = system: SF-539 CNS
TK-10 renal = system: TK-10 renal
KM12 colon = system: KM12 colon
SN12C renal = system: SN12C renal
CCRF-CEM leukemia = system: CCRF-CEM leukemia
SK-OV-3 ovarian = system: SK-OV-3 ovarian
SNB-19 CNS = system: SNB-19 CNS
HCT-15 colon = system: HCT-15 colon
BT-549 breast = system: BT-549 breast
IGROV1 ovarian = system: IGROV1 ovarian
ACHN renal = system: ACHN renal
UACC-257 melanoma = system: UACC-257 melanoma
UACC-62 melanoma = system: UACC-62 melanoma
RXF 393 renal = system: RXF 393 renal
SK-MEL-2 melanoma = system: SK-MEL-2 melanoma
LOX IMVI melanoma = system: LOX IMVI melanoma
NCI-H23 lung = system: NCI-H23 lung
MALME-3M melanoma = system: MALME-3M melanoma
OVCAR-4 ovarian = system: OVCAR-4 ovarian
786-0 renal = system: 786-0 renal
PC-3 prostate = system: PC-3 prostate
MDA-MB-435 = system: MDA-MB-435

CCCCCCNC(=O)Oc1ccc(/C(=C(/C)c2ccc(Cl)cc2)c2ccc(OCCN3CCCC3)cc2)cc1
GI50 (HS 578T breast): 1660 nM
TGI (HS 578T breast): 3590 nM
GI50 (SNB-75 CNS): 1790 nM
TGI (SNB-75 CNS): 8970 nM
GI50 (HOP-62 NSCLC): 1550 nM
TGI (HOP-62 NSCLC): 2950 nM
GI50 (OVCAR-8 ovarian): 1720 nM
TGI (OVCAR-8 ovarian): 3360 nM
GI50 (UO-31 renal): 1240 nM
TGI (UO-31 renal): 2520 nM
GI50 (HOP-92 NSCLC): 1160 nM
TGI (HOP-92 NSCLC): 2420 nM
GI50 (SF-268 CNS): 1770 nM
TGI (SF-268 CNS): 3720 nM
GI50 (NCI/ADR-RES ovarian): 1680 nM
TGI (NCI/ADR-RES ovarian): 3300 nM
GI50 (MCF7 breast): 52.5 nM
TGI (MCF7 breast): 1970 nM
GI50 (SK-MEL-28 melanoma): 1720 nM
TGI (SK-MEL-28 melanoma): 3160 nM
GI50 (SK-MEL-5 melanoma): 1720 nM
TGI (SK-MEL-5 melanoma): 3150 nM
GI50 (HL-60(TB) leukemia): 1630 nM
TGI (HL-60(TB) leukemia): 3740 nM
GI50 (CAKI-1 renal): 1480 nM
TGI (CAKI-1 renal): 2820 nM
GI50 (MDA-MB-231 breast): 1730 nM
TGI (MDA-MB-231 breast): 3220 nM
GI50 (HCC-2998 colon): 1650 nM
TGI (HCC-2998 colon): 3050 nM
GI50 (HCT-116 colon): 1510 nM
TGI (HCT-116 colon): 3100 nM
GI50 (M14 melanoma): 1720 nM
TGI (M14 melanoma): 3180 nM
GI50 (A498 renal): 3930 nM
TGI (A498 renal): 17000 nM
GI50 (SW-620 colon): 1670 nM
TGI (SW-620 colon): 3130 nM
GI50 (OVCAR-5 ovarian): 2730 nM
TGI (OVCAR-5 ovarian): 10100 nM
GI50 (T-47D breast): 1310 nM
TGI (T-47D breast): 2880 nM
GI50 (SF-295 CNS): 1730 nM
TGI (SF-295 CNS): 3170 nM
GI50 (NCI-H460 lung): 1760 nM
TGI (NCI-H460 lung): 3200 nM
GI50 (HT29 colon): 1620 nM
TGI (HT29 colon): 3190 nM
GI50 (MOLT-4 leukemia): 1730 nM
TGI (MOLT-4 leukemia): 3970 nM
GI50 (COLO 205 colon): 1860 nM
TGI (COLO 205 colon): 3360 nM
GI50 (DU-145 prostate): 1920 nM
TGI (DU-145 prostate): 3460 nM
GI50 (U251 CNS): 1540 nM
TGI (U251 CNS): 2930 nM
GI50 (NCI-H226 lung): 2020 nM
TGI (NCI-H226 lung): 4470 nM
GI50 (EKVX NSCLC): 2180 nM
TGI (EKVX NSCLC): 6120 nM
GI50 (A549 NSCLC): 1630 nM
TGI (A549 NSCLC): 3070 nM
GI50 (NCI-H522 lung): 1780 nM
TGI (NCI-H522 lung): 3370 nM
GI50 (SF-539 CNS): 1710 nM
TGI (SF-539 CNS): 3120 nM
GI50 (TK-10 renal): 1620 nM
TGI (TK-10 renal): 3140 nM
GI50 (KM12 colon): 1980 nM
TGI (KM12 colon): 3740 nM
GI50 (SN12C renal): 1730 nM
TGI (SN12C renal): 3200 nM
GI50 (CCRF-CEM leukemia): 1780 nM
TGI (CCRF-CEM leukemia): 4980 nM
GI50 (SK-OV-3 ovarian): 1630 nM
TGI (SK-OV-3 ovarian): 3010 nM
GI50 (SNB-19 CNS): 1850 nM
TGI (SNB-19 CNS): 3590 nM
GI50 (HCT-15 colon): 1500 nM
TGI (HCT-15 colon): 3000 nM
GI50 (BT-549 breast): 1700 nM
TGI (BT-549 breast): 3200 nM
GI50 (IGROV1 ovarian): 1740 nM
TGI (IGROV1 ovarian): 3280 nM
GI50 (ACHN renal): 1710 nM
TGI (ACHN renal): 3080 nM
GI50 (UACC-257 melanoma): 1740 nM
TGI (UACC-257 melanoma): 3240 nM
GI50 (UACC-62 melanoma): 1750 nM
TGI (UACC-62 melanoma): 3220 nM
GI50 (RXF 393 renal): 1700 nM
TGI (RXF 393 renal): 3260 nM
GI50 (SK-MEL-2 melanoma): 1890 nM
TGI (SK-MEL-2 melanoma): 3510 nM
GI50 (LOX IMVI melanoma): 1590 nM
TGI (LOX IMVI melanoma): 2950 nM
GI50 (NCI-H23 lung): 1780 nM
TGI (NCI-H23 lung): 3310 nM
GI50 (MALME-3M melanoma): 1710 nM
TGI (MALME-3M melanoma): 3240 nM
GI50 (OVCAR-4 ovarian): 1840 nM
TGI (OVCAR-4 ovarian): 3750 nM
GI50 (786-0 renal): 1780 nM
TGI (786-0 renal): 3290 nM
GI50 (PC-3 prostate): 1520 nM
TGI (PC-3 prostate): 2950 nM
GI50 (MDA-MB-435): 1790 nM
TGI (MDA-MB-435): 3250 nM
